In PubChem BioAssay AID1963978 (Molecular Pharmacology Branch, DTP, NCI, 2024):

System: 616215-338-R-J1-PDC spheroids with HUVEC/MSC, viability
Assay: Anticancer human tumor 616215-338-R-J1-PDC patient-derived colon adenocarcinoma cell line growth inhibition [PI3K]
Conditions: for IC50: curve of first compound; for viability, T/C: stronger effect = lower value
Outline: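 Targeted small molecules plus PI3K inhibitors, half-log dose series from Cmax (default top 10 microM), were applied to heterotypic spheroids of cancer cells with HUVEC and MSCs. Viability indicated growth inhibition.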

[1] = second compound 0.00316 µM, first compound 0.0316 µM
[2] = second compound 0.00316 µM, first compound 0.1 µM
[3] = second compound 0.00316 µM, first compound 0.316 µM
[4] = second compound 0.00316 µM, first compound 1 µM
[5] = second compound 0.00316 µM, first compound 3.16 µM
[6] = second compound 0.00316 µM, first compound 10 µM
[7] = second compound 0.01 µM, first compound 0.0316 µM
[8] = second compound 0.01 µM, first compound 0.1 µM
[9] = second compound 0.01 µM, first compound 0.316 µM
[10] = second compound 0.01 µM, first compound 1 µM
[11] = second compound 0.01 µM, first compound 3.16 µM
[12] = second compound 0.01 µM, first compound 10 µM
[13] = second compound 0.0316 µM, first compound 0.0316 µM
[14] = second compound 0.0316 µM, first compound 0.1 µM
[15] = second compound 0.0316 µM, first compound 0.316 µM
[16] = second compound 0.0316 µM, first compound 1 µM
[17] = second compound 0.0316 µM, first compound 3.16 µM
[18] = second compound 0.0316 µM, first compound 10 µM
[19] = second compound 0.1 µM, first compound 0.0316 µM
[20] = second compound 0.1 µM, first compound 0.1 µM
[21] = second compound 0.1 µM, first compound 0.316 µM
[22] = second compound 0.1 µM, first compound 1 µM
[23] = second compound 0.1 µM, first compound 3.16 µM
[24] = second compound 0.1 µM, first compound 10 µM
[25] = second compound 0.316 µM, first compound 0.0316 µM
[26] = second compound 0.316 µM, first compound 0.1 µM
[27] = second compound 0.316 µM, first compound 0.316 µM
[28] = second compound 0.316 µM, first compound 1 µM
[29] = second compound 0.316 µM, first compound 3.16 µM
[30] = second compound 0.316 µM, first compound 10 µM
[31] = second compound 1 µM, first compound 0.0316 µM
[32] = second compound 1 µM, first compound 0.1 µM
[33] = second compound 1 µM, first compound 0.316 µM
[34] = second compound 1 µM, first compound 1 µM
[35] = second compound 1 µM, first compound 3.16 µM
[36] = second compound 1 µM, first compound 10 µM
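Also: spheroids exposed to agents for seven days before the viability read.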

C#Cc1c(F)ccc2cc(O)cc(-c3ncc4c(N5CC6CCC(C5)N6)nc(OCC56CCCN5CC(F)C6)nc4c3F)c12 (stereo not drawn) + COc1c(OCCCN2CCOCC2)ccc2c3n(c(=NC(=O)c4cnc(N)nc4)nc12)CCN3
IC50 (second compound 0.00316 µM): > 10000 nM | IC50 (second compound 0.01 µM): 7800 nM | IC50 (second compound 0.0316 µM): 8360 nM | IC50 (second compound 0.1 µM): 5990 nM | IC50 (second compound 0.316 µM): < 31.6 nM | IC50 (second compound 1 µM): < 31.6 nM | viability, T/C [1]: 95.5% | viability, T/C [2]: 89.2% | viability, T/C [3]: 90.4% | viability, T/C [4]: 91.4% | viability, T/C [5]: 94.9% | viability, T/C [6]: 72% | viability, T/C [7]: 95.5% | viability, T/C [8]: 89.7% | viability, T/C [9]: 91.8% | viability, T/C [10]: 102% | viability, T/C [11]: 73.6% | viability, T/C [12]: 43.5% | viability, T/C [13]: 101% | viability, T/C [14]: 98.1% | viability, T/C [15]: 95.4% | viability, T/C [16]: 106% | viability, T/C [17]: 81.5% | viability, T/C [18]: 44.1% | viability, T/C [19]: 94% | viability, T/C [20]: 95.9% | viability, T/C [21]: 90.2% | viability, T/C [22]: 93.7% | viability, T/C [23]: 74.7% | viability, T/C [24]: 30.3% | viability, T/C [25]: 38.2% | viability, T/C [26]: 42.4% | viability, T/C [27]: 38.2% | viability, T/C [28]: 30.9% | viability, T/C [29]: 32.4% | viability, T/C [30]: 17.9% | viability, T/C [31]: 19.8% | viability, T/C [32]: 27.1% | viability, T/C [33]: 17.3% | viability, T/C [34]: 10.8% | viability, T/C [35]: 6.21% | viability, T/C [36]: 0.88%

CC(Cn1ccc(-c2ccc(C#N)c(Cl)c2)n1)NC(=O)c1cc(C(C)O)[nH]n1 (stereo not drawn) + COc1c(OCCCN2CCOCC2)ccc2c3n(c(=NC(=O)c4cnc(N)nc4)nc12)CCN3
IC50 (second compound 0.00316 µM): > 10000 nM | IC50 (second compound 0.01 µM): > 10000 nM | IC50 (second compound 0.0316 µM): > 10000 nM | IC50 (second compound 0.1 µM): > 10000 nM | IC50 (second compound 0.316 µM): < 31.6 nM | IC50 (second compound 1 µM): < 31.6 nM | viability, T/C [1]: 93.9% | viability, T/C [2]: 93.3% | viability, T/C [3]: 88.6% | viability, T/C [4]: 95.8% | viability, T/C [5]: 104% | viability, T/C [6]: 91.3% | viability, T/C [7]: 99.4% | viability, T/C [8]: 86.7% | viability, T/C [9]: 100% | viability, T/C [10]: 90.8% | viability, T/C [11]: 90.3% | viability, T/C [12]: 86.2% | viability, T/C [13]: 99.1% | viability, T/C [14]: 102% | viability, T/C [15]: 99.9% | viability, T/C [16]: 109% | viability, T/C [17]: 93.2% | viability, T/C [18]: 84.2% | viability, T/C [19]: 90.8% | viability, T/C [20]: 91.4% | viability, T/C [21]: 90.2% | viability, T/C [22]: 96.8% | viability, T/C [23]: 89.2% | viability, T/C [24]: 83.4% | viability, T/C [25]: 35.2% | viability, T/C [26]: 34.7% | viability, T/C [27]: 45.3% | viability, T/C [28]: 33.5% | viability, T/C [29]: 36% | viability, T/C [30]: 28.5% | viability, T/C [31]: 27.7% | viability, T/C [32]: 17.2% | viability, T/C [33]: 20.3% | viability, T/C [34]: 24.8% | viability, T/C [35]: 18.8% | viability, T/C [36]: 17.8%

CC1(C)CCC(Nc2ncc(C(F)(F)F)c(-c3c[nH]c4c(P(C)(C)=O)c(C#N)ccc34)n2)CN1 (stereo not drawn) + COc1c(OCCCN2CCOCC2)ccc2c3n(c(=NC(=O)c4cnc(N)nc4)nc12)CCN3
IC50 (second compound 0.00316 µM): < 31.6 nM | IC50 (second compound 0.01 µM): < 31.6 nM | IC50 (second compound 0.0316 µM): < 31.6 nM | IC50 (second compound 0.1 µM): 188 nM | IC50 (second compound 0.316 µM): < 31.6 nM | IC50 (second compound 1 µM): < 31.6 nM | viability, T/C [1]: 47.5% | viability, T/C [2]: 43.1% | viability, T/C [3]: 31.6% | viability, T/C [4]: 56.8% | viability, T/C [5]: 48.9% | viability, T/C [6]: 0.29% | viability, T/C [7]: 40.2% | viability, T/C [8]: 29% | viability, T/C [9]: 38.7% | viability, T/C [10]: 72.4% | viability, T/C [11]: 44.5% | viability, T/C [12]: 0.67% | viability, T/C [13]: 34.5% | viability, T/C [14]: 33.7% | viability, T/C [15]: 41.5% | viability, T/C [16]: 44.8% | viability, T/C [17]: 37.4% | viability, T/C [18]: 0.14% | viability, T/C [19]: 63.7% | viability, T/C [20]: 43.8% | viability, T/C [21]: 47.6% | viability, T/C [22]: 41.6% | viability, T/C [23]: 21.4% | viability, T/C [24]: 0.09% | viability, T/C [25]: 29.9% | viability, T/C [26]: 23.8% | viability, T/C [27]: 20.1% | viability, T/C [28]: 18.9% | viability, T/C [29]: 8.61% | viability, T/C [30]: 0.69% | viability, T/C [31]: 20% | viability, T/C [32]: 19.6% | viability, T/C [33]: 14.9% | viability, T/C [34]: 16.1% | viability, T/C [35]: 8.67% | viability, T/C [36]: 0.24%

Cn1cnc2c(F)c(Nc3ccc(Br)cc3Cl)c(C(=O)NOCCO)cc21 + Cc1nc(NC(=O)N2CCCC2C(N)=O)sc1-c1ccnc(C(C)(C)C(F)(F)F)c1
IC50 (second compound 0.0316 µM): 1010 nM | IC50 (second compound 0.1 µM): 1590 nM | IC50 (second compound 0.316 µM): 1110 nM | IC50 (second compound 1 µM): 725 nM | IC50 (second compound 3.16 µM): 423 nM | IC50 (second compound 10 µM): 379 nM | viability, T/C (second compound 0.0316 µM, first compound 0.00949 µM): 107% | viability, T/C (second compound 0.0316 µM, first compound 0.03 µM): 94.8% | viability, T/C (second compound 0.0316 µM, first compound 0.0949 µM): 99.2% | viability, T/C (second compound 0.0316 µM, first compound 0.3 µM): 79.9% | viability, T/C (second compound 0.0316 µM, first compound 0.949 µM): 50.1% | viability, T/C (second compound 0.0316 µM, first compound 3 µM): 44.3% | viability, T/C (second compound 0.1 µM, first compound 0.00949 µM): 111% | viability, T/C (second compound 0.1 µM, first compound 0.03 µM): 91.3% | viability, T/C (second compound 0.1 µM, first compound 0.0949 µM): 98.2% | viability, T/C (second compound 0.1 µM, first compound 0.3 µM): 91.8% | viability, T/C (second compound 0.1 µM, first compound 0.949 µM): 55.3% | viability, T/C (second compound 0.1 µM, first compound 3 µM): 43.4% | viability, T/C (second compound 0.316 µM, first compound 0.00949 µM): 109% | viability, T/C (second compound 0.316 µM, first compound 0.03 µM): 101% | viability, T/C (second compound 0.316 µM, first compound 0.0949 µM): 77.4% | viability, T/C (second compound 0.316 µM, first compound 0.3 µM): 73.1% | viability, T/C (second compound 0.316 µM, first compound 0.949 µM): 50.1% | viability, T/C (second compound 0.316 µM, first compound 3 µM): 36.9% | viability, T/C (second compound 1 µM, first compound 0.00949 µM): 99.7% | viability, T/C (second compound 1 µM, first compound 0.03 µM): 95.6% | viability, T/C (second compound 1 µM, first compound 0.0949 µM): 83.4% | viability, T/C (second compound 1 µM, first compound 0.3 µM): 75.8% | viability, T/C (second compound 1 µM, first compound 0.949 µM): 39.2% | viability, T/C (second compound 1 µM, first compound 3 µM): 36.5% | viability, T/C (second compound 3.16 µM, first compound 0.00949 µM): 106% | viability, T/C (second compound 3.16 µM, first compound 0.03 µM): 94.5% | viability, T/C (second compound 3.16 µM, first compound 0.0949 µM): 79.3% | viability, T/C (second compound 3.16 µM, first compound 0.3 µM): 55.4% | viability, T/C (second compound 3.16 µM, first compound 0.949 µM): 36.4% | viability, T/C (second compound 3.16 µM, first compound 3 µM): 26.2% | viability, T/C (second compound 10 µM, first compound 0.00949 µM): 101% | viability, T/C (second compound 10 µM, first compound 0.03 µM): 86.3% | viability, T/C (second compound 10 µM, first compound 0.0949 µM): 94% | viability, T/C (second compound 10 µM, first compound 0.3 µM): 54.1% | viability, T/C (second compound 10 µM, first compound 0.949 µM): 21.9% | viability, T/C (second compound 10 µM, first compound 3 µM): 1.33%
